Experimental data: US10294226B2, “Small molecule inhibitors of the JAK family of kinases” (Janssen Pharmaceutica NV, priority 2016, dated 2019)

Experiments:
[1] = pH 6.5
IL-2 pSTAT5 (JAK1/JAK3) = IL-2 pSTAT5 (JAK1/JAK3) cellular assay, AlphaLISA in PBMCs; type: cell-based; conditions: PBMC, IL-2 5 ng/mL
Experimental: The AlphaLISA assay (based on Alpha Technology from PerkinElmer) was performed by first plating freshly thawed PBMCs (Biological Specialty Corporation) in 384-well plates at 30,000 cells per 4 μL per well in HBSS (Hanks' Balanced Salt Solution) containing 0.1% IgG (immunoglobulin G)-free, protease-free BSA (bovine serum albumin) (Jackson ImmunoResearch Cat. No. 001-000-161). The cells were then treated with 2 μL/well of compounds diluted in DMSO at half-log titrated concentrations, with a highest test concentration of 10 μM and 0.5% final DMSO concentration, for thirty minutes at 37° C. […] The cellular reactions were terminated by the addition of 2 μL/well of lysis buffer (PerkinElmer Cat. No. ALSU-PST5-A10K) followed by an incubation of five minutes at room temperature. 5 μL/well of acceptor mix (PerkinElmer Cat. No. ALSU-PST5-A10K) was added to the cells and incubated in the dark for one hour at room temperature. Then, 5 μL/well of donor mix (PerkinElmer Cat. No. ALSU-PST5-A10K) was added to the cells and incubated in the dark overnight at room temperature. Finally, the plates were read on a PerkinElmer EnVision for detection of the time-resolved fluorescence signal. The percentage of IL-2-dependent pSTAT5 inhibition was determined at the compound test concentrations; and for each compound, a dose curve was generated and the IC50 was calculated. Compound IC50 was calculated by nonlinear regression, sigmoidal dose response analysis of the half-log dilution titration curve of the compound concentration vs. Alpha signal. The acronym “Alpha” stands for amplified luminescent proximity homogeneous assay; the Alpha signal is a luminescent/fluorescent signal.

P-gp (MDR1) = test: MDCK-MDR1 permeability assay; type: in vitro ADME; conditions: dog, MDCK-MDR1, pH 7.4, with elacridar 2 μM, @ 5 μM, apical to basolateral, with P-gp inhibitor elacridar (2 μM); read-out: MDCK-MDR1 P^eapp(A-B)
Experimental: Permeability measurements were conducted according to the Cyprotex protocol using the MDCK-MDR1 cell line obtained from the NIH (Rockville, Md., USA). […] The cells in this assay form a cohesive sheet of a single cell layer filing the surface area of the culture dish, also known as a confluent monolayer, and on day four the test compound was added to the apical side of the membrane and the transport of the compound across the monolayer was monitored over a time period of 60 min.
Test compounds were dissolved in DMSO at a concentration of 10 mM. The dosing solutions were prepared by diluting test compound with assay buffer (Hanks Balanced Salt Solution), pH 7.4, at a final concentration of 5 μM. For assessment of apical to basolateral (“A-B”) permeability, buffer was removed from the apical compartment and replaced with test compound dosing solution with or without the permeability glycoprotein (“PgP”, “P-gP”, “Pgp” or “P-gp”) inhibitor elacridar (2 μM). For assessment of basolateral to apical (“B-A”) permeability, buffer was removed from the companion plate and replaced with test compound dosing solution. Incubations were carried out in duplicate at 37° C. in an atmosphere of 5% CO2 with a relative humidity of 95%. […] After incubation for 60 minutes, apical and basolateral samples were diluted and test compounds quantified by LC/MS/MS using an 8-point calibration in the range 0.0039 to 3 μM with appropriate dilution of the samples (receiver dilution factor=1; donor and C0 dilution factor=10). The permeability coefficient (Papp) for each compound was calculated from the following equation: Papp=(dQ/dt)/(C0×S), where dQ/dt is the rate of permeation of the drug across the cells, C0 is the donor compartment concentration at time zero, and S is the area of the cell monolayer.
The percent recovery was measured for all incubation conditions.
Papp(A-B) gives an indication of permeation extent across the cells in this assay, which is envisaged to model the transcellular transport across Pgp-expressing cells, such as Pgp-expressing gastrointestinal tract cells.
The integrity of each monolayer was monitored by examining the permeation of lucifer yellow by fluorimetric analysis.

Tyk2-JH1JH2 = Tyk2-JH1JH2 (Homo sapiens (Human), UniProt P29597, C1142A/C936A); test: Enzymatic inhibition assay (HTMS); type: biochemical; conditions: 50 μM ATP; read-out: Tyk2_I_JH1JH2 IC50
Sequence of Tyk2-JH1JH2 (P29597 580-1182 C936A/C1142A): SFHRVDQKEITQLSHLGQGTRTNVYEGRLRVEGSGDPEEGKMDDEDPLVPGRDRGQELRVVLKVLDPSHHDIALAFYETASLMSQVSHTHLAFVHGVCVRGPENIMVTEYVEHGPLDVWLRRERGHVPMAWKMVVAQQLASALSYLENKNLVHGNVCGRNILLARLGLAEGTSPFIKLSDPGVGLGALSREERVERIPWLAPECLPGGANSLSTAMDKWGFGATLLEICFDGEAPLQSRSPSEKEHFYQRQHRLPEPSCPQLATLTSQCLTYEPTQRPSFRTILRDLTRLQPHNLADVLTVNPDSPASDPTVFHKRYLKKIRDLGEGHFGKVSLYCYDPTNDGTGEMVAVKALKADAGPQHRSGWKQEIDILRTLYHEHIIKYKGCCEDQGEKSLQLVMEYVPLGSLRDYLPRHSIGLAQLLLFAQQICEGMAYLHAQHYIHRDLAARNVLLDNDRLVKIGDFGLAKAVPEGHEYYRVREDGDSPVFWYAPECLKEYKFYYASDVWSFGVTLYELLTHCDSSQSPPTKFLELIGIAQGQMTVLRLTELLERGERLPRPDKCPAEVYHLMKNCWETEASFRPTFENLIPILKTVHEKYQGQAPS
Excerpt: (§1) JAK1-JH1JH2 (574-1154 with a His-GST Tag and a C-terminal tev (ENLYFQ-G) cleavage site), JAK3-JH1JH2 (512-1124 with a GST Tag and a C-terminal tev (ENLYFQ-G) cleavage site), and Tyk2-JH1JH2 (8H_tev_580-1182-C936A-C1142A with a C-terminal tev (ENLYFQ-G) cleavage site) were purified internally. […] LC/MS grade water and acetonitrile (ACN), were purchased from HoneyWell, Burdick & Jackson (Muskegon, Mich., USA). Dimethylsulfoxide 99.8% (DMSO) and trifluoroacetic acid 99.5% (TFA) were purchased from EMD Chemical (Gibbstown, N.J., USA). Adenosine triphosphate (ATP), 4-morpholinepropanesulfonic acid (MOPS), magnesium chloride (MgCl2), ethylenediaminetetraacetic acid (EDTA), dithiothreitol (DTT), formic acid>95% (FA) and Tween-20 were purchased from Sigma (St Louis, Mo., USA). 384-well polypropylene plates, Cat#781280 were purchased from Greiner (Monroe, N.C.), RapidFire™ cartridge A C4 Column (Agilent Technologies, Santa Clara, Calif.).
(§2) The HTMS experiments were performed in positive ionization mode on a RapidFire 300 instrument (Agilent Technologies, Santa Clara, Calif.), coupled with an ABSiex QTrap 4000 system with an Electrospray Ionization source (RF-MS) (Concord, ON, Canada). […] The entire system was operated using the RapidFire software interfaced with Analyst software for the mass spectrometer.
(§3) 11-point dosing series were made for each compound by serially diluting 1:3 or 1:4 in DMSO, with point 12 being a DMSO control. From the serial dilution plates, sample was transferred to a 384 wells assay plate (#781280, Greiner, Monroe, N.C.) using Labcyte Echo (Sunnyvale, Calif.), or Biosero ATS (San Diego, Calif.). The compounds were tested in duplicate. Column 12 was used for positive controls, and column 24 contained negative controls with no enzyme added. A compound from our internal collection, with inhibitory activity for JAK isoforms, was used as a reference compound. The final concentration of DMSO was ≤0.25% in a 20 μL reaction. The enzyme reaction was initiated by the addition of 10 μL of enzyme and ATP mixture to 10 μL of substrate solution prepared in reaction buffer (50 mM MOPS pH 7.5, 10 mM MgCl2, 1 mM EDTA, 2 mM DTT, 0.002% Tween-20). The Tyk2 enzyme was pre-incubated with 2 mM ATP for 30 min prior to the reaction initiation. Immediately after the addition of the enzyme to the reaction mixture, the plate was centrifuged at 1000 rpm for 1 minute and incubated at 25° C. for 45 minutes for JAK3 and 90 minutes for JAK1, JAK2 and Tyk2. The reaction was quenched by the addition of 20 μL of 0.5% TFA containing 0.15 μM of internal standard peptide using Multidrop Combi reagent dispenser (Thermo Scientific, Waltham, Mass.). […] After the quench, the assay plate was centrifuged at 3000 rpm for 3 minutes and sealed with pierceable aluminum foil (Cat#06644-001, Agilent) using a PlateLoc (Agilent Technologies, Santa Clara, Calif.). The plates then were transferred on to the RapidFire for the MS analysis. Compound inhibition was assessed by a decrease of the phosphorylated product levels in sample wells compared to the non-inhibited enzyme reaction.
(§4) The sample analysis on the RapidFire was performed using a mobile phase A1 consisting of Water/TFA/FA (100:0.01:0.1, v/v/v), a mobile phase B1 consisting of ACN/Water/TFA/FA (80:20:0.01:0.1, v/v/v). […] The samples were aspirated directly from the 384-well assay plate and delivered onto RF-MS microscale solid-phase C4 extraction cartridge (Type A). The undesired component such as salt, cofactor, detergent and large protein were washed out and the retained analytes (substrate, product and IS) were coeluted directly onto the AB Siex Qtrap 4000 system.

JAK2-JH1JH2 = JAK2-JH1JH2 (Homo sapiens (Human), UniProt O60674); test: Enzymatic inhibition assay (HTMS); type: biochemical; conditions: 30 μM ATP; read-out: JAK2_I_JH1JH2 IC50
Sequence of JAK2-JH1JH2 (O60674 532-1132): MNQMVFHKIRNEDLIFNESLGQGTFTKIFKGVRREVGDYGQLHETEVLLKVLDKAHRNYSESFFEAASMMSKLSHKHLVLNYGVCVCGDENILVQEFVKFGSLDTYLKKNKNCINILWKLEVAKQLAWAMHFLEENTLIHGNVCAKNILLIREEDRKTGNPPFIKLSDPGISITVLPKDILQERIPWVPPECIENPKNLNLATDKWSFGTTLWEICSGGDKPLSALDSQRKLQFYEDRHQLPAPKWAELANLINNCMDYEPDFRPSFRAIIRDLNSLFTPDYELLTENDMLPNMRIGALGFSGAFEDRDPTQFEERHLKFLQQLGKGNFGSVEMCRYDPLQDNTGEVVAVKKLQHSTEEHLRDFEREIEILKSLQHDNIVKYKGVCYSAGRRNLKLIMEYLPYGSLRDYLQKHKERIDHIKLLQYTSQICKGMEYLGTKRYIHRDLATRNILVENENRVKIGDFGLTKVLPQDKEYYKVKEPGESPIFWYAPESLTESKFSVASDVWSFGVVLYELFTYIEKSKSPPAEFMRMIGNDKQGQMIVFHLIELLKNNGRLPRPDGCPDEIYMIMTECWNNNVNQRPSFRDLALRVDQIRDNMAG
Excerpt: as §1, §2, §3, §4

JAK3-JH1JH2 = JAK3-JH1JH2 (Homo sapiens (Human), UniProt P52333); test: Enzymatic inhibition assay (HTMS); type: biochemical; conditions: 150 μM ATP; read-out: JAK3_I_JH1JH2 IC50
Sequence of JAK3-JH1JH2 (P52333 512-1124): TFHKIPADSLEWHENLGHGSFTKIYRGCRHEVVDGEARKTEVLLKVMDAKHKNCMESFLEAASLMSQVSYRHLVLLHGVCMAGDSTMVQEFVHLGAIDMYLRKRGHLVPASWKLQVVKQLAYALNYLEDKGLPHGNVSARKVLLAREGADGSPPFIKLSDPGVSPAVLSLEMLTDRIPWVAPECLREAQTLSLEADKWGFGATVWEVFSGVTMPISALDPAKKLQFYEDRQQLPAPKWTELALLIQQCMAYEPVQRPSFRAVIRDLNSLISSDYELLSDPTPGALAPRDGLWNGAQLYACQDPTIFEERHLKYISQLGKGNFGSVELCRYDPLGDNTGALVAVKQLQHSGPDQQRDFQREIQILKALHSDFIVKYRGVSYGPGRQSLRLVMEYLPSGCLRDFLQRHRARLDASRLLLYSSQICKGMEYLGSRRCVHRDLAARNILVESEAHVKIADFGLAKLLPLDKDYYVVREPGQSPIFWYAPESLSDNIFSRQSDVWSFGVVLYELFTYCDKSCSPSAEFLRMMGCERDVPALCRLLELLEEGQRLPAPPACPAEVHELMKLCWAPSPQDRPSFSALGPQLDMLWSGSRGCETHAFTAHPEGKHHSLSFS
Excerpt: as §1, §2, §3, §4

JAK1-JH1JH2 = JAK1-JH1JH2 (Homo sapiens (Human), UniProt P23458); test: Enzymatic inhibition assay (HTMS); type: biochemical; conditions: 12.5 μM ATP; read-out: JAK1_JH1JH2 IC50
Sequence of JAK1-JH1JH2 (P23458 574-1154): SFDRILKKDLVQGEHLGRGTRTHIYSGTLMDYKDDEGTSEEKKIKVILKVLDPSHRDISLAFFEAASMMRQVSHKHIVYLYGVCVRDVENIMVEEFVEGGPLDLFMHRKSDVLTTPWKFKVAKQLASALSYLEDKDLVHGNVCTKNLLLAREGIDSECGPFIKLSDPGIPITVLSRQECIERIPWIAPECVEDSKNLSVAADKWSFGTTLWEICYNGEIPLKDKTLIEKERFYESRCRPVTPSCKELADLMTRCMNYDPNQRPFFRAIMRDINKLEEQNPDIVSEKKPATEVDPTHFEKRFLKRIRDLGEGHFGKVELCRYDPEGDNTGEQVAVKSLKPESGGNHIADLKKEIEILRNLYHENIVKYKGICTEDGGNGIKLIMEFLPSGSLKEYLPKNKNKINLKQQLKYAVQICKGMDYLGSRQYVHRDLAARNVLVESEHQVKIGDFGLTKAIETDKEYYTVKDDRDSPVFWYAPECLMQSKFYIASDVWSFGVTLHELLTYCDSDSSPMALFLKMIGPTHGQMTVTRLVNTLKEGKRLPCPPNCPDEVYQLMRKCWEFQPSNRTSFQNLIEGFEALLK
Excerpt: as §1, §2, §3, §4

SMILES | SIF solubility [1] [µM] | IC50 (IL-2 pSTAT5 (JAK1/JAK3)) [nM] | Papp A→B at 60 min, 5 μM (P-gp (MDR1)) [×10⁻⁶ cm/s] | IC50 (Tyk2-JH1JH2) [nM] | IC50 (JAK2-JH1JH2) [nM] | IC50 (JAK3-JH1JH2) [nM] | IC50 (JAK1-JH1JH2) [nM]
N#CC[C@H]1CC[C@H](n2c(-c3c[nH]cn3)nc3cnc4[nH]ccc4c32)CC1 [Ex. 2, 2-((1r,4r)-4-(2-(1H-Imidazol-4-yl)imidazo[4,5-d]pyrrolo[2,3-b]pyridin-1(6H)-yl)cyclohexyl)acetonitrile] | >400 | 9 | 1.6 | 1.5 |  |  | 
N#CC[C@H]1CC[C@H](n2c(CC(=O)NCC3CC3)nc3cnc4[nH]ccc4c32)CC1 [Ex. 3, 2-(1-((1r,4r)-4-(Cyanomethyl)cyclohexyl)-1,6-dihydroimidazo[4,5-d]pyrrolo[2,3-b]pyridin-2-yl)-N-(cyclopropylmethyl)acetamide] | >400 | 6.4 | 2.3 | 11.6 | 6.2 | 82.8 | 0.2
CC(C)(O)CNC(=O)Cc1nc2cnc3[nH]ccc3c2n1[C@H]1CC[C@H](CC#N)CC1 [Ex. 1, 2-(1-((1r,4r)-4-(Cyanomethyl)cyclohexyl)-1,6-dihydroimidazo[4,5-d]pyrrolo[2,3-b]pyridin-2-yl)-N-(2-hydroxy-2-methylpropyl)acetamide] |  | 21.6 | 1.1 | 7.4 | 8.6 | 92.2 | 0.4
N#CCC12CCC(NC(=O)Cc3nc4cnc5[nH]ccc5c4n3[C@H]3CC[C@H](CC#N)CC3)(CC1)C2 [Ex. 10, N-(4-(Cyanomethyl)bicyclo[2.2.1]heptan-1-yl)-2-(1-((1r, 4r)-4-(cyanomethyl)cyclohexyl)-1,6-dihydroimidazo[4,5-d]pyrrolo[2,3-b]pyridin-2-yl)acetamide] |  | 16.8 | 1.1 | 9 | 6.5 | 87.5 | 1
N#CCCNC(=O)Cc1nc2cnc3[nH]ccc3c2n1[C@H]1CC[C@H](CC#N)CC1 [Ex. 4, N-(2-Cyanoethyl)-2-(1-((1r,4r)-4-(cyanomethyl)cyclohexyl)-1,6-dihydroimidazo[4,5-d]pyrrolo[2,3-b]pyridin-2-yl)acetamide] | >400 | 35.5 | 0.5 | 2.2 | 6.6 | 96.2 | 0.1
N#CC[C@H]1CC[C@H](n2c(CC(=O)NC3CCOCC3)nc3cnc4[nH]ccc4c32)CC1 [Ex. 5, 2-(1-((1r,4r)-4-(Cyanomethyl)cyclohexyl)-1,6-dihydroimidazo[4,5-d]pyrrolo[2,3-b]pyridin-2-yl)-N-(tetrahydro-2H-pyran-4-yl)acetamide] |  | 6.4 | 0.7 | 4.1 | 2.1 | 23.1 | 0.3
CC(C)(C#N)CNC(=O)Cc1nc2cnc3[nH]ccc3c2n1[C@H]1CC[C@H](CC#N)CC1 [Ex. 7, N-(2-Cyano-2-methylpropyl)-2-(1-((1r,4r)-4-(cyanomethyl)cyclohexyl)-1,6-dihydroimidazo[4,5-d]pyrrolo[2,3-b]pyridin-2-yl)acetamide] |  | 9.7 | 1.2 | 4.8 | 5.6 | 98.4 | 0.2
N#CC[C@H]1CC[C@H](n2c(CC(=O)NCC3(O)CCC3)nc3cnc4[nH]ccc4c32)CC1 [Ex. 8, 2-(1-((1r,4r)-4-(Cyanomethyl)cyclohexyl)-1,6-dihydroimidazo[4,5-d]pyrrolo[2,3-b]pyridin-2-yl)-N-((1-hydroxycyclobutyl)methyl)acetamide] | >400 | 20.6 | 0.5 | 6.6 | 7 | 75.6 | 0.4
N#CC[C@H]1CC[C@H](n2c(CC(=O)NCC3CCOCC3)nc3cnc4[nH]ccc4c32)CC1 [Ex. 6, 2-(1-((1r,4r)-4-(Cyanomethyl)cyclohexyl)-1,6-dihydroimidazo[4,5-d]pyrrolo[2,3-b]pyridin-2-yl)-N-((tetrahydro-2H-pyran-4-yl)methyl)acetamide] | >400 | 6.7 | 0.9 | 1.1 | 1.4 | 28.2 | 0.1
N#CC[C@H]1CC[C@H](n2c(CC(=O)NCC3(O)CC3)nc3cnc4[nH]ccc4c32)CC1 [Ex. 12, 2-(1-((1r,4r)-4-(Cyanomethyl)cyclohexyl)-1,6-dihydroimidazo[4,5-d]pyrrolo[2,3-b]pyridin-2-yl)-N-((1-hydroxycyclopropyl)methyl)acetamide] | >400 | 13.9 | 0.6 | 8.7 | 9.4 | 101 | 0.9
